This experiment addresses T1, Aurora A (Homo sapiens, UniProt O14965).
T1 construct: gene AURKA
T1 sequence (O14965 1-403): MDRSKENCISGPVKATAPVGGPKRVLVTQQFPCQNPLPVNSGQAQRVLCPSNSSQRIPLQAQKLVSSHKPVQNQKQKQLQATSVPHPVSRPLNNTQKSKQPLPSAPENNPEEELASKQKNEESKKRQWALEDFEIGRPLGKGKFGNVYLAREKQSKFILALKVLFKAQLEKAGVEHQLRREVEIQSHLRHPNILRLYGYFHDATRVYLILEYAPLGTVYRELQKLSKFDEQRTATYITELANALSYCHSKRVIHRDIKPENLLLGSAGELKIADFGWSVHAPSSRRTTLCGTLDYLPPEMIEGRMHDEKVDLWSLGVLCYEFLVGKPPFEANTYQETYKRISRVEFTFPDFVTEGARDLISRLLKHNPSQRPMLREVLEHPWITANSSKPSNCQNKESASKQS
The experiment can be described thus: microfluidic mobility shift kinase assay; also cellular thermal shift assay (Aurora A levels reduced with GNA at […]°C). Format: biochemical.

Consider `CC(C)=CCC/C(C)=C/Cc1c(O)c(CC=C(C)C)c2c(c1O)C(=O)C1=C[C@@H]3C[C@H]4C(C)(C)O[C@@](C/C=C(/C)C(=O)O)(C3=O)[C@@]14O2` [GNA, gambogenic acid], for which the IC50 worked out at 1420 nM.

Source of the values: paper PMC8526855, “Gambogenic Acid Induces Endoplasmic Reticulum Stress in Colorectal Cancer via the Aurora A Pathway” (Frontiers in Cell and Developmental Biology, 2021).
